Common to all, as to type: cell-based, human cytomegalovirus (HCMV)
In test [1] the test system is RV-HG-UL56 mutants. Briefly: GFP-RA, drug susceptibility profile of the virus mutants. The settings on record: fluorescence reduction assays; for BAY 38-4766 and BDCRB with the exception of the strain carrying UL56 R369M. The method, then:
(§1) HCMV Fluorescence Reduction Assay (GFP-RA)
(§2) The susceptibilities of recombinant HCMV laboratory strains expressing GFP were determined by a GFP-based fluorescence reduction assay. For standard assays, 1.5×10^4 NHDF cells/well were cultured in black 96-well plates (Greiner Bio-One, Germany) and infected with either HCMV-GFP (MOI, 0.1) or RV-HG (MOI, 0.2 to 0.5). After virus adsorption, the virus inoculum was replaced with 200 μl fresh medium. Thereafter, 100 μl medium containing the test compounds was added to wells of horizontal row G, followed by serial 3-fold dilutions up to row A. All drug concentrations were tested at least in duplicate. Wells of the horizontal row H served as the virus control. Plates were incubated at 37° C. for 7 days. The medium was replaced by 200 μl PBS, and GFP units (GFPU) were determined by a charge-coupled-device-camera-based fluorescence detector (FluoBox; Bayer Technology Services GmbH, Leverkusen, Germany), which captures 96 images simultaneously. Drug effects were calculated as a percentage of reduction in GFPU in the presence of each drug concentration compared to the GFPU determined in the absence of drug. EC50 and EC90 values (drug concentrations producing 50% and 90% reduction in GFPU) were calculated using nonlinear regression curve fit with a variable slope. GraphPad Prism 3.02 or 4.0 software (GraphPad Software Inc., La Jolla, Calif.) was used for all analyses.
The HCMV AD169-derived bacterial artificial chromosome (BAC) pHG served as the backbone for the construction of the mutant viruses. The markerless introduction of point mutations into pHG was done using a two-step recombination protocol according to the en passant method. Briefly, a recombination fragment containing the I-SceI-AphAI cassette from plasmid pEPKan-S was obtained by PCR using primers containing ˜60 bp of homology to the intended integration site in ORF UL56 of BAC pHG and ˜20 bp specific for pEPKan-S. This fragment was electroporated into Escherichia coli GS1783 that harbored the pHG BAC. […] After successful kanamycin selection, all non-HCMV sequences were removed by an intrabacterial ISceI digest and a subsequent second Red recombination, resulting in the scarless repair of the mutated UL56 gene in the background of BAC pHG. […] To reconstitute virus mutants, the recombinant BACs were transfected into permissive MRC5 cells. At least two independent virus clones per mutation were generated and evaluated.

Test [2] deals with RV-HG (wt-HCMV). Briefly: HCMV fluorescence reduction assay (GFP-RA). The method, then:
as §1, §2
(§3) The HCMV AD169-derived bacterial artificial chromosome (BAC) pHG served as the backbone for the construction of the mutant viruses. The markerless introduction of point mutations into pHG was done using a two-step recombination protocol according to the en passant method. Briefly, a recombination fragment containing the I-SceI-AphAI cassette from plasmid pEPKan-S was obtained by PCR using primers containing ˜60 bp of homology to the intended integration site in ORF UL56 of BAC pHG and ˜20 bp specific for pEPKan-S. This fragment was electroporated into Escherichia coli GS1783 that harbored the pHG BAC. […] After successful kanamycin selection, all non-HCMV sequences were removed by an intrabacterial ISceI digest and a subsequent second Red recombination, resulting in the scarless repair of the mutated UL56 gene in the background of BAC pHG. The integrity of the generated BACs was confirmed by restriction enzyme digestion and sequencing. To reconstitute virus mutants, the recombinant BACs were transfected into permissive MRC5 cells. At least two independent virus clones per mutation were generated and evaluated.

Test [3] has as its system RV-HG UL56-C325Yrev. Briefly: GFP-RA, marker transfer revertant. The method, then: as §1, §2, §3
For test [4], the system named is RV-HG UL56-C325Y. Briefly: GFP-RA, marker transfer mutant. The method, then: as §1, §2, §3
Test [5] concerns RV-HG UL56-L241P. Briefly: GFP-RA, marker transfer mutant. The procedure: as §1, §2, §3
Test [6] relates to RV-HG UL56-L241P/R369S. The test can be described thus: GFP-RA, marker transfer mutant. The settings on record: for Resistance index (RI) = EC50 indicated RV-HG mutant/EC50 RV-HG wt: RV-HG UL56-L241P/R369S vs RV-HG wt. The procedure:
as §1, §2, §3

In test [7] the test system is RV-HG UL56-R369M. The test can be described thus: GFP-RA, marker transfer mutant. The following applies: for Resistance index (RI) = EC50 indicated RV-HG mutant/EC50 RV-HG wt: RV-HG UL56-R369M vs RV-HG wt. The procedure:
as §1, §2, §3

In test [8] the test system is RV-HG UL56-V231L. The test can be described thus: GFP-RA, marker transfer mutant. The method, then:
as §1, §2, §3

Test [9] concerns RV-HG UL56-R369S. Briefly: GFP-RA, marker transfer mutant. The method, then:
as §1, §2, §3

Test [10] has as its system RV-HG UL56-V236M. Briefly: GFP-RA, marker transfer mutant. The procedure: as §1, §2, §3
The mark [11] stands for this setting: Human betaherpesvirus 5, RV-HG (wt-HCMV), fluorescence reduction assay, mean ± SD, read-out: EC50.
The mark [12] stands for this setting: Human betaherpesvirus 5, RV-HG UL56-C325Yrev, fluorescence reduction assay, mean ± SD, read-out: EC50.
[13] abbreviates: Human betaherpesvirus 5, RV-HG UL56-C325Y, fluorescence reduction assay, mean ± SD, read-out: EC50.
The mark [14] stands for this setting: Human betaherpesvirus 5, RV-HG UL56-L241P, fluorescence reduction assay, mean ± SD, read-out: EC50.
Setting [15] is: Human betaherpesvirus 5, RV-HG UL56-L241P/R369S, fluorescence reduction assay, mean ± SD, read-out: EC50.
Where [16] appears, read: Human betaherpesvirus 5, RV-HG UL56-R369M, fluorescence reduction assay, mean ± SD, read-out: EC50.
Where [17] appears, read: Human betaherpesvirus 5, RV-HG UL56-R369S, fluorescence reduction assay, mean ± SD, read-out: EC50.
The mark [18] stands for this setting: Human betaherpesvirus 5, RV-HG UL56-V236M, fluorescence reduction assay, mean ± SD, read-out: EC50.
[19] abbreviates: Human betaherpesvirus 5, RV-HG UL56-V231L, fluorescence reduction assay, mean ± SD, read-out: EC50.

7 compounds from patent US20140193802A1, “IDENTIFICATION OF AN ALTERED THERAPEUTIC SUSCEPTIBILITY TO ANTI-HCMV COMPOUNDS AND OF A RESISTANCE AGAINST ANTI-HCMV COMPOUNDS” (priority 2012, published 2014) can be followed below.

Where two headings read alike, the source gives them in different places.

What is called EC50 is the concentration at which the effect is half-maximal. On to `O=C(O)P(=O)(O)O` [Foscarnet], for which the “sensitivity of the RV-HG-UL56 mutants compared with the parental wild-type virus RV-HG” value in [1] is given as “did not differ”. Moreover, the concentration giving a half-maximal response (EC50) in [2] (setting [11]) turned out to be 111000 ± 55000 nM; in test [3] (setting [12]) it was 178000 ± 12000 nM; in [4] (setting [13]), 126000 ± 20000 nM; in test [5] (setting [14]) it was 115000 ± 71000 nM; in test [6] (setting [15]), 62000 ± 30000 nM; in test [7] (setting [16]), 76000 ± 25000 nM. Further, the concentration giving a half-maximal response (EC50) in [8] (Human betaherpesvirus 5) was determined as 67000 ± 18000 nM; in test [9] (setting [17]) it was 61000 ± 21000 nM; in [10] (setting [18]), 76000 ± 35000 nM.
Take `N#CC1(C(=O)Nc2cc(F)cc(NS(=O)(=O)c3ccc(-c4noc(-c5cccc(N)n5)n4)cc3)c2)CC1` [Formula (X), N-{3-[({4-[5-(6-Aminopyridin-2-yl)-1,2,4-oxadiazol-3-yl]phenyl}sulfonyl)amino]-5-fluorophenyl}-1-cyanocyclopropanecarboxamide]: the EC50 was determined as 14.1 ± 7.9 nM in test [2] (setting [11]); 31.7 ± 2.4 nM in test [3] (setting [12]); 36.7 ± 3.9 nM in test [4] (setting [13]); 18.3 ± 10 nM in test [5] (setting [14]); 41.6 ± 18 nM in test [6] (setting [15]); 96 ± 18 nM in test [7] (setting [16]). Besides, the concentration giving a half-maximal response (EC50) in test [8] (setting [19]) is 7.1 ± 1.2 nM; in test [9] (setting [17]), 29.5 ± 13.7 nM; in test [10] (setting [18]), 8.6 ± 1.3 nM. Further, the “Resistance index (RI) = EC50 indicated RV-HG mutant/EC50 RV-HG wt” value in [6] stood at 3; in test [7] it was 7; in test [9] (RV-HG UL56-R369S vs RV-HG wt), 2.
`CC(C)Nc1nc2cc(Cl)c(Cl)cc2n1[C@H]1O[C@@H](CO)[C@H](O)[C@@H]1O` [Maribavir]: the EC50 in test [2] (setting [11]) was determined as 180 ± 110 nM; in [3] (setting [12]), 180 ± 70 nM; in test [4] (setting [13]) it was 290 ± 140 nM; in [5] (setting [14]), 140 ± 70 nM; in test [9] (setting [17]) it was 80 ± 30 nM.
`OC[C@H]1O[C@@H](n2c(Br)nc3cc(Cl)c(Cl)cc32)[C@H](O)[C@@H]1O` [BDCRB]: the “sensitivity of the RV-HG-UL56 mutants compared with the parental wild-type virus RV-HG” value in test [1] was “comparably active”. The EC50 came out at 330 ± 120 nM in test [2] (RV-HG (wt-HCMV), fluorescence reduction assay, mean ± SD, read-out: EC50); 290 ± 40 nM in test [3] (RV-HG UL56-C325Yrev, fluorescence reduction assay, mean ± SD, read-out: EC50); 300 ± 40 nM in test [4] (RV-HG UL56-C325Y, fluorescence reduction assay, mean ± SD, read-out: EC50); 270 ± 40 nM in test [5] (RV-HG UL56-L241P, fluorescence reduction assay, mean ± SD, read-out: EC50); 300 ± 140 nM in test [6] (RV-HG UL56-L241P/R369S, fluorescence reduction assay, mean ± SD, read-out: EC50); 110 ± 50 nM in [7] (RV-HG UL56-R369M, fluorescence reduction assay, mean ± SD, read-out: EC50). For the same compound, the EC50 in test [8] (RV-HG UL56-V231L, fluorescence reduction assay, mean ± SD, read-out: EC50) is 210 ± 40 nM; in test [9] (RV-HG UL56-R369S, fluorescence reduction assay, mean ± SD, read-out: EC50) it was 190 ± 20 nM; in [10] (RV-HG UL56-V236M, fluorescence reduction assay, mean ± SD, read-out: EC50), 170 ± 30 nM.
Regarding `CN(C)c1cccc2c(S(=O)(=O)Nc3ccc(NC(=O)C(C)(C)CO)cc3)cccc12` [BAY384766], in test [1], the “sensitivity of the RV-HG-UL56 mutants compared with the parental wild-type virus RV-HG” value was “comparably active”. Further, the half-maximal effective concentration (EC50) in test [2] (setting [11]) turned out to be 410 ± 150 nM; in [3] (setting [12]), 580 ± 60 nM; in test [4] (setting [13]), 1070 ± 140 nM; in test [5] (setting [14]), 340 ± 140 nM; in test [6] (Human betaherpesvirus 5), 840 ± 310 nM; in test [7] (Human betaherpesvirus 5), 1750 ± 160 nM. For the same compound, the concentration giving a half-maximal response (EC50) is 360 ± 80 nM in test [8] (setting [19]), 680 ± 130 nM in test [9] (Human betaherpesvirus 5) and 330 ± 80 nM in test [10] (setting [18]). For the same compound, the figures for the “Resistance index (RI) = EC50 indicated RV-HG mutant/EC50 RV-HG wt” value in test [6] and in test [7] were 2 and 4, respectively.
In the case of `Nc1nc2c(ncn2COCCO)c(=O)[nH]1` [Aciclovir], the EC50 in test [2] (Human betaherpesvirus 5) worked out at 74000 ± 40000 nM; in [3] (Human betaherpesvirus 5), 55000 ± 18000 nM; in test [4] (Human betaherpesvirus 5), 49000 ± 16000 nM; in test [5] (Human betaherpesvirus 5), 53000 ± 12000 nM; in test [6] (setting [15]), 81000 ± 33000 nM; in [7] (setting [16]) it was 88000 ± 29000 nM. The concentration giving a half-maximal response (EC50) in [8] (setting [19]) was 29000 ± 9000 nM; in test [9] (setting [17]), 45000 ± 10000 nM; in test [10] (Human betaherpesvirus 5) it was 80000 ± 21000 nM.
With `Nc1ccn(C[C@@H](CO)OCP(=O)(O)O)c(=O)n1` [Cidofovir], in test [1], the “sensitivity of the RV-HG-UL56 mutants compared with the parental wild-type virus RV-HG” value is reported as “did not differ”. For the same compound, the EC50 in test [2] (setting [11]) amounted to 250 ± 170 nM; in [3] (setting [12]) it was 320 ± 130 nM; in test [4] (setting [13]), 350 ± 50 nM; in test [5] (setting [14]) it was 210 ± 90 nM; in test [6] (setting [15]), 200 ± 110 nM; in test [7] (setting [16]), 180 ± 110 nM. Besides, the EC50 in [8] (setting [19]) came out at 90 ± 20 nM; in test [9] (setting [17]) it was 160 ± 50 nM; in [10] (setting [18]) it was 260 ± 180 nM.
